The source of these data is patent US7109193B2, “Tricyclic diazepines tocolytic oxytocin receptor antagonists” (Wyeth, priority 2001, dated 2006).

For the test, the target named is T1, human vasopressin V2 receptor subtype (Homo sapiens, UniProt P30518).
T1 construct: host or cells: CHO cells (pZeoSV vector)
The test can be described thus: Vasopressin binding in Chinese Hamster Ovary cell membranes expressing human vasopressin V2 subtype receptors. Conditions: 100 nM, CHO cell membranes, [3H]arginine vasopressin, values without parentheses. A digest of the protocol: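 Radioligand displacement on membranes from CHO cells stably expressing human V2 receptor, 25 to 50 μg protein/well, in 50 mM Tris-HCl pH 7.4 with MgCl2, BSA and protease inhibitors. [^3H]arginine vasopressin (8 nM working solution) incubated 60 min at room temperature; bound label measured by filtration and scintillation counting.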

As to `COc1cc(C(=O)N2Cc3ccc(C(=O)N4CCC[C@H]4CN4CCCC4)n3Cc3ccccc32)ccc1-n1c(C)ccc1C` [Example 321, {10-[4-(2,5-Dimethyl-1H-pyrrol-1-yl)-3-methoxybenzoyl]-10,11-dihydro-5H-pyrrolo[2,1-c][1,4]benzodiazepin-3-yl}[(2S)-2-(1-pyrrolidinylmethyl)pyrrolidinyl]methanone], the “V2 % inhibition @ 100 nM” value came out at 23%.

Consider `COc1cc(C(=O)N2Cc3ccc(C(=O)N4CC[C@@H](N(C)C)C4)n3Cc3ccccc32)ccc1-n1c(C)ccc1C` [Example 322, [(3R)-3-(Dimethylamino)pyrrolidinyl]{10-[4-(2,5-dimethyl-1H-pyrrol-1-yl)-3-methoxybenzoyl]-10,11-dihydro-5H-pyrrolo[2,1-c][1,4]benzodiazepin-3-yl}methanone], for which the “V2 % inhibition @ 100 nM” value amounted to 24%. As to “{10-[(2,2′-Dimethoxy[1,1′-biphenyl]-4-yl)carbonyl]-10,11-dihydro-5H-pyrrolo[2,1-c][1,4]benzodiazepin-3-yl}(4-isopropyl-1-piperazinyl)methanone [Example 244]”, the “V2 % inhibition @ 100 nM” value is listed as 9%.
